# Data from patent US11485736B2 (KSQ Therapeutics, Inc., priority 2018, dated 2022).
# Like-named read-outs stand apart in the source and are kept apart here.
# Assays:
# [1] = Liver microsomal stability, rat liver microsomes; type: in vitro ADME; conditions: 1 μM compound, NADPH, read-out: t1/2 (min) in RLM
# Summary of the method: (§1)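 Compound (1 μM final) was incubated with prewarmed human or rat liver microsomes (1 mg/mL in 100 mM phosphate master mix) plus NADPH; aliquots at 0.5–30 minutes were quenched in cold acetonitrile and quantified by LC-MS/MS. Half-life came from the ln(% remaining) versus time slope, converted to CLint (μL/min/mg prot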
# [2] = ADME solubility determination at pH 2.0 and pH 7.4; type: physicochemical; conditions: aqueous buffer, thermodynamic from solid, LC-MS/MS
# Summary of the method: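 Dried residues of 10 mM DMSO stocks were shaken in PBS pH 7.4 or pH 2.0 for 24 hours at 25° C. and 1,100 rpm. After centrifugation, supernatants were quantified by LC-MS/MS against a standard of known concentration, applying a dilution factor.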
# [3] = Liver microsomal stability, human liver microsomes; type: in vitro ADME; conditions: 1 μM compound, NADPH, read-out: t1/2 (min) in HLM
# Summary of the method: as §1
# [4] = PBS pH 2.0, shaken at 25° C. for 24 hours, read-out: Solubility at pH 2.0
# [5] = PBS pH 7.4, shaken at 25° C. for 24 hours, read-out: Solubility at pH 7.4
# [6] = phosphate buffered saline, PBS pH 2.0, shaken at 25° C. for 24 hours, read-out: Solubility at pH 2.0
# [7] = phosphate buffered saline, PBS pH 7.4, shaken at 25° C. for 24 hours, read-out: Solubility at pH 7.4
half-life at 1 μM [1] [min],"solubility at 24 h [2, 4] [µM]","solubility at 24 h [2, 5] [µM]",half-life at 1 μM [3] [min],"solubility at 24 h [2, 6] [µM]","solubility at 24 h [2, 7] [µM]",Compound
> 25,< 10,< 10,> 25,,,CCn1cc(C(F)(F)F)nc1-c1ccc([C@H](C)n2ncc3cnc(-c4c(OC)ncnc4C4CC4)nc32)cc1F [Example 96]
< 25,< 10,< 10,< 25,,,Cc1nn(Cc2ccc(-c3nc(C(F)(F)F)cn3C)cc2)c2nc(-c3ccccc3C(C)C)ncc12 [Example 25]
> 25,> 10,> 10,> 25,,,COc1ncnc(OC)c1-c1ncc2cnn(Cc3ccc(-c4nc(C(F)(F)F)cn4C)cc3)c2n1 [Example 86]
> 25,> 10,> 10,> 25,,,COc1ncnc(C2(C)CC2)c1-c1ncc2cnn(Cc3ccc(-c4nc(C(F)(F)F)cn4C(C)C)cc3)c2n1 [Example 107]
> 25,> 10,> 10,> 25,,,CCn1cc(C(F)(F)F)nc1-c1ccc(Cn2ncc3cnc(-c4c(OC)ncnc4OC)nc32)cc1 [Example 87]
> 25,< 10,< 10,> 25,,,COc1ncnc(C2CC2)c1-c1ncc2cnn(Cc3ccc(-c4nc(C(F)(F)F)sc4C)cc3)c2n1 [Example 125]
> 25,> 10,< 10,> 25,,,COc1cc(Cn2ncc3cnc(-c4c(OC)ncnc4C4CC4)nc32)ccc1-c1nc(C(F)(F)F)cn1CCF [Example 129]
> 25,> 10,< 10,> 25,,,COc1ncnc(C2CC2)c1-c1ncc2cnn([C@@H](C)c3ccc(-c4nc(C(F)(F)F)cn4C(C)C)cc3)c2n1 [Example 97]
< 25,,,< 25,> 10,> 10,COc1ncnc(C2CC2)c1-c1ncc2cnn(Cc3ccc(-c4nc(C(F)(F)F)cn4C4CN(C)C4)cc3)c2n1 [Example 153]
< 25,> 10,< 10,< 25,,,COc1cnn(C2CC2)c1-c1ncc2cnn(Cc3ccc(-c4nc(C(F)(F)F)cn4C(C)C)cc3)c2n1 [Example 83]
> 25,< 10,< 10,> 25,,,COc1ncnc(C2CC2)c1-c1ncc2cnn(Cc3ccc(-n4nc(C(F)(F)F)cc4OC)cc3)c2n1 [Example 37]
> 25,< 10,< 10,> 25,,,COc1ncnc(C2CC2)c1-c1ncc2cnn(Cc3ccc(-n4nc(C(F)(F)F)cc4C)cc3)c2n1 [Example 27]
< 25,> 10,< 10,< 25,,,"COc1ncnc(C2CC2)c1-c1ncc2ccn(Cc3ccc(-c4nc(C(F)(F)F)cn4C)cc3)c2n1 [Example 201, 2-(4-cyclopropyl-6-methoxypyrimidin-5-yl)-7-(4-(1-methyl-4-(trifluoromethyl)-1H-imidazol-2-yl)benzyl)-7H-pyrrolo[2,3-d]pyrimidine]"
< 25,> 10,< 10,< 25,,,"COc1nccc(C)c1-c1ncc2cnn(Cc3ccc(-c4nc(C(F)(F)F)cn4C)cc3)c2n1 [Example 6, 6-(2-methoxy-4-methylpyridin-3-yl)-1-(4-(1-methyl-4-(trifluoromethyl)-1H-imidazol-2-yl)benzyl)-1H-pyrazolo[3,4-d]pyrimidine]"
< 25,> 10,< 10,< 25,,,"COc1cccc(OC)c1-c1ncc2cnn(Cc3ccc(-c4nc(C(F)(F)F)cn4C)cc3)c2n1 [Example 4, 6-(2,6-dimethoxyphenyl)-1-(4-(1-methyl-4-(trifluoromethyl)-1H-imidazol-2-yl)benzyl)-1H-pyrazolo[3,4-d]pyrimidine]"
< 25,> 10,> 10,> 25,,,COc1ncnc(C2CC2)c1-c1ncc2cnn(Cc3ccc(-c4nc(C(F)(F)F)cn4C4COC4)cc3)c2n1 [Example 145]
< 25,> 10,< 10,> 25,,,COc1ncnc(C2CC2)c1-c1ncc2cnn(Cc3ccc(-c4nc(C(F)(F)F)cn4CC(C)F)cc3)c2n1 (stereo not shown) [Example 142]
< 25,< 10,< 10,< 25,,,COc1cnn(C2CC2)c1-c1ncc2cnn(Cc3ccc(-c4nc(C(F)(F)F)cn4C)cc3)c2n1 [Example 81]
> 25,,,> 25,> 10,< 10,COc1ncnc(C2CC2)c1-c1ncc2cnn(Cc3ccc(-c4nc(C(F)(F)F)nn4C)cc3)c2n1 [Example 56]
> 25,> 10,< 10,> 25,,,COc1ncnc(C2CC2)c1-c1ncc2cnn(C(C)c3ccc(-c4nc(C(F)(F)F)cn4CCF)cc3)c2n1 (stereo not shown) [Example 141]
> 25,< 10,< 10,> 25,,,COc1ncnc(C2CC2)c1-c1ncc2nc(C3CCC3)n(Cc3ccc(-n4nc(C(F)(F)F)cc4C)cc3)c2n1 [Example 214]
< 25,,,< 25,> 10,< 10,CCOc1ncnc(C2CC2)c1-c1ncc2cnn(Cc3ccc(-c4nc(C(F)(F)F)cn4C)cc3)c2n1 [Example 39]
< 25,< 10,< 10,< 25,,,CCn1cc(C(F)(F)F)nc1-c1ccc(Cn2ncc3cnc(-c4c(OC)cnn4C4CC4)nc32)cc1 [Example 82]
> 25,> 10,< 10,> 25,,,COc1nc(N)nc(C2CC2)c1-c1ncc2cnn(Cc3ccc(-n4nc(C(F)(F)F)cc4C)cc3)c2n1 [Example 112]
< 25,> 10,< 10,< 25,,,CCOc1ncnc(OCC)c1-c1ncc2cnn(Cc3ccc(-c4nc(C(F)(F)F)cn4CC)cc3)c2n1 [Example 91]
< 25,< 10,< 10,< 25,,,CC(C)c1ccccc1-c1ncc2cnn(C(C)c3ccc(-c4nc(C(F)(F)F)cn4C)cc3)c2n1 (stereo not shown) [Example 24]
> 25,< 10,< 10,> 25,,,COc1ncnc(C2CC2)c1-c1ncc2cnn(Cc3ccc(-c4nc(C(F)(F)F)cn4C(C)C)cc3)c2n1 [Example 143]
> 25,< 10,< 10,> 25,,,COc1ncnc(C2CC2)c1-c1ncc2cnn(Cc3ccc(-n4nc(C(F)(F)F)cc4OC)nc3)c2n1 [Example 79]
